From patent publication US11667607B1 (ZYLORION HEALTH INC., priority 2022, dated 2023)

How the values were obtained:
[1] = Dynamic vapor sorption (DVS) moisture sorption isotherm, solid re-measured by HT-XRPD; format: physicochemical
Protocol: Moisture sorption isotherms were collected on a DVS Adventure system from Surface Measurement Systems (London, UK). Sample size was circa 10 mg of solid material. A full sorption and desorption isotherm was recorded by varying the relative humidity from 40-95-0-40% in steps of 10% at a constant temperature of 25° C. Weight equilibration per step was set at dm/dt of 0.002%/min. Afterwards the sample was measured by HT-XRPD.

[2] = Exposure of solids to 2 days at 40° C./75% RH (AAC), remeasured by XRPD; format: physicochemical; conditions: Table 1, lyophilization/recrystallization; ambient-dried solid after 2 days 40° C./75% RH; crystalline; pc = poor crystalline

Compound: CCc1cc(/C(C)=N/OCc2ccc(C3CCCCC3)c(C(F)(F)F)c2)ccc1CN1CC(C(=O)O)C1.CCc1cc(/C(C)=N/OCc2ccc(C3CCCCC3)c(C(F)(F)F)c2)ccc1CN1CC(C(=O)O)C1.O=C(O)/C=C/C(=O)O [crystalline Form A]
- mass uptake at 80% RH ([1]; DVS, 25° C.): 2.4%
- total mass difference between 0-95% RH ([1]; DVS, 25° C., RH cycle 40-95-0-40%): 3.6%
- hygroscopicity according to the EP hygroscopicity classification ([1]; DVS, based on mass uptake at 80% RH): moderately hygroscopic
- physical stability after the sorption-desorption cycle (XRPD of solid recovered after DVS) ([1]; after DVS cycle 40-95-0-40% RH, 25° C.): physically stable
- HT-XRPD AAC-Amb-dried (solid form after AAC) [2]: Form A
